Tests used:
MRGPRX2 = biological target: T1, MRGPRX2 (Homo sapiens, UniProt Q96LB1); test: Surface expression of CD107a and CD63 (flow cytometry), LAD2 cells activated with SP; format: cell-based; conditions: 30 nM, 5 min; SP 300 nM
T1 sequence (Q96LB1 1-330): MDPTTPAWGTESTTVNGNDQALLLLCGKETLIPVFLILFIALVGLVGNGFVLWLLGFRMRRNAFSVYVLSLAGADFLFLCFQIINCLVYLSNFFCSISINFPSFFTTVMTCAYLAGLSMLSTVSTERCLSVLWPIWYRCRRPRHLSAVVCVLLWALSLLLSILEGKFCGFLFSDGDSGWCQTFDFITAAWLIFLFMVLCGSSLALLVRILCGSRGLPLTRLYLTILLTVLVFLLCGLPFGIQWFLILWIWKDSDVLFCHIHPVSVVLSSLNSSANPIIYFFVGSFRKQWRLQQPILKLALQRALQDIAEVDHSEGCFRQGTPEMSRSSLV
Procedure: The granule-associated proteins CD107a and CD63 externalize in the process of degranulation. Their quantification by flow cytometry is a reliable marker of mast cell activation, which is often used for the diagnosis of allergies and anaphylaxis in mast cell activation tests.[49],[50] Thus, the expression of CD107a and CD63 on the cell surface was determined to confirm the effects of PSB-172656 on SP-induced MRGPRX2-mediated degranulation. […] In addition to MRPGRX2, LAD2 cells also express a GPCR that is specifically activated by the complement component C3a.[51] Both receptors can activate Gαi/o proteins to promote MC activation.[48],[52]
MC degranulation was also measured by determining the cell surface expression of CD107a (Lysosomal-Associated Membrane Protein-1, LAMP-1) and CD63 (LAMP-3) after agonist stimulation.[48] LAD2 cells were preincubated with PSB-172656 or vehicle control for 5 min at 37 °C, then activated with SP (0.3 μM) and or C3a (3 nM) for 5 min at 37 °C. After 5 min of incubation, cells were fixed with 500 µL of 4% fixation buffer (Biolegend, Catalog 420801) for 15 min at room temperature. […] Cell surface expression of CD107a and CD63 was measured from the zombie-yellow negative population by a BD LSR II flow cytometer (San Jose, CA, USA) and analyzed by FlowJo software version 10.7.2 (Tree Star Inc., Ashland, OR, USA).[48],[50]

mouse MRGPRB2 = biological target: T2, mouse MRGPRB2 (Mus musculus, UniProt Q3KNA1); test: Ca2+ assay, 1321N1 astrocytoma cells expressing MRGPRB2; format: cell-based
T2 construct: expressed in transfected cells; host or cells: 1321N1 astrocytoma cells; plasmid pLVX-IRES-MRGPRB2-mCherry (Addgene #213961)
T2 sequence (Q3KNA1 1-338): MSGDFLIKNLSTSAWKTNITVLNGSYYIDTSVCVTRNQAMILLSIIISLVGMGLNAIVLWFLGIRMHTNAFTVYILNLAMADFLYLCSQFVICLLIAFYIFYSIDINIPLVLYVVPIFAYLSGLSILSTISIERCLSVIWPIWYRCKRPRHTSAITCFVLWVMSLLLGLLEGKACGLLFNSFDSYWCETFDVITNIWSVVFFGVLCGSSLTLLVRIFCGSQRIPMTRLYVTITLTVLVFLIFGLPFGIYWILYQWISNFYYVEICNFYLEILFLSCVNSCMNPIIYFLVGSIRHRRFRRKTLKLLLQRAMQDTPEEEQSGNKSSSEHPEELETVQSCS
Procedure: Therefore, we investigated whether the new MRGPRX2 antagonists could also block MRGPRB2. To this end, we used recombinant 1321N1 astrocytoma cells that stably expressed MRGPRB2, employing Ca^2+ assays, and CST-14 as MRGPRX2/MRGPRB2 agonist (EC80 value of 2000 nM).[31]
For MRGPRB2, the pKi values of the compounds were determined using 1321N1 astrocytoma cells recombinantly expressing MRGPRB2 using Ca^2+ assays versus the MRGPRX2/MRGPRB2 agonist CST-14 (EC80 value, 2000 nM). For MRGPRX2, pKi values were determined using Ca^2+ assays performed in LN229 cells recombinantly overexpressing MRGPRX2 versus the agonist CST-14 (EC80 value, 800 nM). b Concentration-response curve of PSB-172656 in Ca^2+ assays using 1321N1 astrocytoma cells expressing MRGPRB2 versus CST-14 (EC80 value, 2000 nM), Ki value 0.302 ± 0.039 nM. Data are generated from 3 biological replicates, determined in duplicates. c A representative trace showing the effect of C48/80 (30 µg/mL) on a mouse tracheal ring in isometric force measurements using a wire-myograph system. d The contraction response of mouse trachea to C48/80 (30 µg/mL) was normalized to the contraction caused by methacholine (10 µM), a muscarinic receptors agonist. […]

effect on SP-induced expression of CD107a and CD63 on the cell surface (MRGPRX2): completely prevented
fold less potent at MRGPRB2 than at human MRGPRX2 (mouse MRGPRB2; Ca2+ assays): 3 fold
Ki (mouse MRGPRB2; versus CST-14 (EC80 2000 nM)): 0.302 nM
Structure (SMILES): CCc1c(C(C)C)[nH]c2nc3cc(F)c(F)cc3n2c1=O [Compound 24, 3-ethyl-7,8-difluoro-2-isopropylbenzo[4,5]imidazo [1,2-a] pyrimidin-4(1H)-one]
